Structures can show the parent of a compound that is named as a salt. Where two headings read alike, the source gives them in different places.
Legend:
white mice [1] = experiment: Maximum Electroshock Seizure Test (electroshock-inhibiting effect); type: in vivo, white mice of both sexes; conditions: for Protective Index: ED50 rotarod divided by ED50 ES; for ED50: Mus musculus, read-out: ED50 ES
Procedure: (§1) The pharmacological properties of the new compounds were tested on white mice of both sexes, weighing 16 to 24 g. The new compounds were administered orally through a metal stomach tube, in the form of a 5 per cent suspension in a medium containing Tween 80 as suspending agent.
The electroshock-inhibiting effect of the compounds was examined on groups each consisting of 10, individually caged mice. The anticonvulsive activity was tested by the "Maximum Electroshock Seizure Test" of Swinyard, et al. (Epilepsia 10, 107 /1969/), and the inhibition of the tonic extension of the hind limbs was evaluated. […] The results were evaluated according to the method of Lichtfield and Wilcoxon. The electroshock was provoked using corneal electrodes, under the following parameters: 50 Hz, 0.3 sec. 3 msec; the current intensity varied between 28 and 34 mA (a current intensity was maintained that was sufficient to provoke spasm in each of the 10 animals).
The activities of the compounds with protecting effect against electroshock were compared by the so-called protective index, which was calculated by dividing the individual ED5o rotarod values with the corresponding ED5o ES values. The greater this ratio, the more remote the dosis protecting against electroshock is from the dosis causing muscle relaxation.
(§2) For comparison various known and widely used pharmacons, namely phenobarbital (5-ethyl-5-phenylbarbituric acid), phenytoin (5,5-diphenylhydantoine) and trimethadion (3,5,5-trimethyl-2,4-oxazolidine-dione) were also tested under the same conditions.

in vivo = conditions: mouse, po
Procedure: as §1
The paralyzing effect of the compounds was tested on groups each consisting of 8 mice, by the rotarod test. The ED5o rotarod value corresponds to the dosis, which, one hour after the administration, causes 50 per cent of the test animals to fall down from the rotarod within 3 minutes. The neurotoxic activity was evaluated according to the method of Lichtfield and Wilcoxon.
as §2

white mice [2] = experiment: inhibition of pentamethylenetetrazole-provoked spasm; type: in vivo, white mice of both sexes; conditions: Mus musculus, read-out: ED50 pentamethylenetetrazole
Procedure: The inhibiting effect on pentamethylenetetrazoleprovoked spasm was tested on groups each consisting of 12 individually caged, randomized mice, by the method of Orloff (Proc. Soc. Exp. Biol. Med. N.Y., 70, 254 /1949/). The pentamethylenetetrazole spasm threshold was determined by the slow (0.05 ml./10 sec.) intravenous administration of a 0.5 % pentamethylenetetrazole solution, and the influence of the compounds on the spasm threshold was examined. In every case, the tonic extension of the hind limbs was regarded as spasm.

[3] = acute oral toxicity (LD50) in mice; conditions: mouse, in vivo
Procedure: (§3) The LD5o values of the compounds were determined on groups each consisting of 8 mice. The results were evaluated according to the method of Lichtfield and Wilcoxon (J. Pharmacol. exp. Therap. 96, 99 / 1949/).

white mice [4] = experiment: acute oral toxicity (LD50) in mice; conditions: mouse, in vivo, po
Procedure: as §3

[5] = oral, mice, 3 h., inhibition of tonic extension of the hind limbs, protection of 50 % of animals
[6] = oral, mice, 3 h., 0.5 % pentamethylenetetrazole slow i.v., tonic extension of the hind limbs regarded as spasm

Compound: CCCNCC(=O)Nc1ccc(C2NC(=O)C(C)(C)c3ccccc32)cc1 (centres unmarked) [Example 6, 1,4-Dihydro-4,4-dimethyl-1-(4'-/propylaminoacetyl/-amino-phenyl)3-(2H)-isoquinolinone]
- Protective Index (white mice [1]): 13.6
- ED50 (white mice [1]; [5]): 32 mg/kg
- TD50 (in vivo): 435 mg/kg
- ED50 (white mice [2]; [6]): 100 mg/kg
- LD50 ([3]; po): 1600 mg/kg

Compound: O=C1NC(=O)C(c2ccccc2)(c2ccccc2)N1 [5,5-diphenyl-hidantoine, 5,5-diphenylhydantoine, reference compound]
- Protective Index (white mice [1]): 1.0
- ED50 (white mice [1]; [5]): 10 mg/kg
- TD50 (in vivo): 10 mg/kg
- ED50 (white mice [2]; [6]): 25 mg/kg
- LD50 ([3]; oral, mice, read-out: LD50): 300 mg/kg

Compound: CCNCC(=O)Nc1ccc(C2NC(=O)C(C)(C)c3ccccc32)cc1 (centres unmarked) [Example 10, 1,4-Dihydro-1-(4'-/ethylaminoacetyl/-amino-phenyl)-4,4-dimethyl-3(2H)-isoquinolinone]
- Protective Index (white mice [1]): ~2
- ED50 (white mice [1]; [5]): > 300 mg/kg
- TD50 (in vivo): 760 mg/kg
- ED50 (white mice [2]; [6]): 50 mg/kg
- LD50 (white mice [4]): > 2000 mg/kg

Compound: CC(C)NCC(=O)Nc1ccc(C2NC(=O)Cc3ccccc32)cc1 (centres unmarked) [Example 12, 1,4-Dihydro-1-(4'-/isopropylaminoacetyl/-aminophenyl)-3(2H)-isoquinolinone]
- Protective Index (white mice [1]): 26
- ED50 (white mice [1]; [5]): 10.5 mg/kg
- TD50 (in vivo): 270 mg/kg
- ED50 (white mice [2]; [6]): 100 mg/kg
- LD50 (white mice [4]): > 1000 mg/kg

Compound: CCCNCC(=O)Nc1ccc(C2NC(=O)Cc3ccccc32)cc1 (centres unmarked) [Example 5, 1,4-Dihydro-1-(4'-/propylaminoacetyl/-amino-phenyl)-3(2H)-isoquinolinone]
- Protective Index (white mice [1]): 24
- ED50 (white mice [1]; [5]): 21 mg/kg
- TD50 (in vivo): 490 mg/kg
- ED50 (white mice [2]; [6]): 50 mg/kg
- LD50 ([3]; po): ~2000 mg/kg

Compound: CCCNCC(=O)Nc1ccc(C2NC(=O)C(C)c3ccccc32)cc1 (centres unmarked) [Example 7, 1,4-Dihydro-4-methyl-1-(4'-/propylaminoacetyl/-aminophenyl)-3(2H)-isoquinolinone]
- Protective Index (white mice [1]): 15.4
- ED50 (white mice [1]; [5]): 22 mg/kg
- TD50 (in vivo): 340 mg/kg
- ED50 (white mice [2]; [6]): 50 mg/kg
- LD50 (white mice [4]): > 1600 mg/kg

Compound: CN1C(=O)OC(C)(C)C1=O [3,5,5-trimethyl-2,4-oxazolidine-dione, reference compound]
- Protective Index (white mice [1]): 0.77
- ED50 (white mice [1]; [5]): 440 mg/kg
- TD50 (in vivo): 340 mg/kg
- ED50 (white mice [2]; [6]): 62 mg/kg
- LD50 ([3]; oral, mice, read-out: LD50): 1750 mg/kg

Compound: CCNCC(=O)Nc1ccc(C2NC(=O)Cc3ccccc32)cc1 (centres unmarked) [Example 9, 1,4-Dihydro-1-(4'-/ethylaminoacetyl/-amino-phenyl)-3(2H)-isoquinolinone]
- Protective Index (white mice [1]): 51
- ED50 (white mice [1]; [5]): 10.2 mg/kg
- TD50 (in vivo): 520 mg/kg
- ED50 (white mice [2]; [6]): 50 mg/kg
- LD50 (white mice [4]): > 1600 mg/kg

Compound: CNCC(=O)Nc1ccc(C2NC(=O)C(C)(C)c3ccccc32)cc1 (centres unmarked) [Example 13, 1,4-Dihydro-4,4-dimethyl-1-(4'-/methylaminoacetyl/-amino-phenyl)-3(2H)-isoquinolinone maleate]
- Protective Index (white mice [1]): ~32
- ED50 (white mice [1]; [5]): 25 mg/kg
- TD50 (in vivo): ~800 mg/kg
- LD50 (white mice [4]): > 2000 mg/kg

Compound: CCCNCC(=O)Nc1ccc(C2NC(=O)C(C(C)C)c3ccccc32)cc1 (centres unmarked) [Example 8, 1,4-Dihydro-4-isopropyl-1-(4'-/propylaminoacetyl/-amino-phenyl)-3(2H)-isoquinolinone]
- Protective Index (white mice [1]): ~2.5
- ED50 (white mice [1]; [5]): ~20 mg/kg
- TD50 (in vivo): ~50 mg/kg
- ED50 (white mice [2]; [6]): 50 mg/kg
- LD50 ([3]; po): 600 to 800 mg/kg

Compound: CCCCNCC(=O)Nc1ccc(C2NC(=O)C(C)(C)c3ccccc32)cc1 (centres unmarked) [Example 15, 1,4-Dihydro-1-(4'-/butylaminoacetyl/-amino-phenyl)-4,4-dimethyl-3(2H)-isoquinolinone]
- Protective Index (white mice [1]): ~10
- ED50 (white mice [1]; [5]): 29 mg/kg
- TD50 (in vivo): ~300 mg/kg
- LD50 ([3]; po): > 1000 mg/kg

Compound: CCN(CC)CC(=O)Nc1ccc(C2NC(=O)C(C)(C)c3ccccc32)cc1 (centres unmarked) [Example 16, 1,4-Dihydro-1-(4'-/N,N-diethylaminoacetyl/-amino-phenyl)-4,4-dimethyl-3(2H)-isoquinolinone]
- Protective Index (white mice [1]): ~15
- ED50 (white mice [1]; [5]): ~88 mg/kg
- TD50 (in vivo): ~1300 mg/kg
- LD50 ([3]; po): ~1600 mg/kg

Compound: CCC1(c2ccccc2)C(=O)NC(=O)NC1=O [5-ethyl-5-phenyl-barbituric acid, 5-ethyl-5-phenylbarbituric acid, reference compound]
- Protective Index (white mice [1]): 2.5
- ED50 (white mice [1]; po, 3 h): 15 mg/kg
- TD50 (in vivo; in vivo): 38 mg/kg
- ED50 (white mice [2]; po, 3 h): 15 mg/kg
- LD50 ([3]; oral, mice, read-out: LD50): 180 mg/kg

Compound: CNCC(=O)Nc1ccc(C2NC(=O)Cc3ccccc32)cc1 (centres unmarked) [Example 11, 1,4-Dihdryo-1-(4'-/methylaminoacetyl/-amino-phenyl)-3(2H)-isoquinolinone]
- Protective Index (white mice [1]): ~12
- ED50 (white mice [1]; [5]): 22 mg/kg
- TD50 (in vivo): 270 mg/kg
- ED50 (white mice [2]; [6]): 50 mg/kg
- LD50 ([3]; po): ~600 mg/kg

Compound: CC(C)NCC(=O)Nc1ccc(C2NC(=O)C(C)(C)c3ccccc32)cc1 (centres unmarked) [Example 14, 1,4-Dihydro-4,4-dimethyl-1-(4'-/isopropylaminoacetyl/-amino-phenyl)-3(2H)-isoqinolinone]
- Protective Index (white mice [1]): ~59
- ED50 (white mice [1]; [5]): 27 mg/kg
- TD50 (in vivo): ~1600 mg/kg
- LD50 (white mice [4]): > 2000 mg/kg
